# Experimental data taken from patent US20020037544A1 (priority 1998, published 2002).
# Entries after “also recorded” stand apart in the source; their conditions may differ.
# B1: P/GF: placenta derived growth factor, a VEGFR-1-specific ligand, from R & D Systems (protein, UniProt P49763 19-221, looked up)
# Placenta growth factor: LPAVPPQQWALSAGNGSSEVEVVPFQEVWGRSYCRALERLVDVVSEYPSEVEHMFSPSCVSLLRCTGCCGDENLHCVPVETANVTMQLLKIRSGDRPSYVELTFSQHVRCECRHSPGRQSPDMPGDFRADAPSFLPPRRSLPMLFRMEWGCALTGSQSAVWPSSPVPEEIPRMHPGRNGKKQQRKPLREKMKPERCGDAVPRR
# Tests used:
# p120 and p100 [1] = assay: p120/p100 band shift (mobility shift) by SDS-PAGE and immunoblotting in HUVEC; format: cell-based, Human; conditions: for p120/p100 electrophoretic mobility (band shift): 10 μM histamine, 200 nM PDB
# Method: (§1) Human umbilical vein endothelial cells (HUVEC), pooled donors, were from BioWhitaker and cultured in EGM on collagen-coated plastic (Falcon) according to the supplier's instructions. The cells were cultured in medium in the presence of 100 U/ml penicillin and 100 μg/ml streptomycin at 37° C. in humidified air containing 10% CO2. Routinely, stocks were maintained in 75 cm^2 flasks and split at a 1:3 ratio when almost confluent. For experimental use, cells were seeded in appropriate plasticware such that confluence was established within 2-3 days and the cells were usually used 5-6 days after seeding. Prior to experimental use, confluent monolayers of cells were equilibrated in fresh medium for at least 2 hours prior to the start of the experiment. Compounds and agents that were only soluble in Me2SO were added to the culture medium of the cells in an equal volume of CO2-and temperature-equilibrated medium containing twice the finally required concentration of compound. […] Aqueous soluble agents were added at a 1:100 dilution directly to the cultures. In all cases, appropriate vehicle controls were performed and found to have no effect.
# (§2) Whole cell lysates were prepared by aspiration of culture medium and immediately replacing it with boiling hot Laemmli sample buffer (Laemmli, U. K. (1970) Cleavage of structural proteins during the assembly of the head of bacteriophage T4. Nature 227, 680-685) supplemented with 5 mM EDTA.Na4. The samples were collected and heated at 100° C. for 5 minutes. Proteins were resolved by gel electrophoresis using 8% acrylamide slab gels (Hoefer SE 600 system, 16 cm) and the buffers described (Laemmli, 1970, loc cit). Gels were run overnight at 55 V. The gels were then equilibrated for 30 minutes in buffer at 4° C. containing 48 mM Tris, 39 mM glycine, 0.03% SDS (w/v) and 20% methanol (v/v), and electrotransferred to nitrocellulose filters (Hybond ECL, Amersham) at 4° C. After Ponceau S staining, the filters were blocked in PBS containing 1% (w/v) BSA and 0.05% (v/v) Tween-20. The filters were then incubated with primary antibody, rinsed and immunoreactive bands were detected using appropriate HRP-conjugated secondary antibody and chemiluminescence (ECL, Amersham).
# Incubations were performed in triplicate and analyzed in parallel. The cells were extracted in Laemmli sample buffer and proteins were resolved by SDS-PAGE. […] Other experiments have shown that this is due to the loss of phosphate from the protein on serine and threonine residues.
# (§3) Cell extracts were prepared and p120 (◯) and p100 (●) were detected by immunoblotting following SDS-PAGE, FIG. 2, Panel A. The same filter was also probed with the antibody recognizing the activated forms of p42 and p44 MAP kinase (arrowheads), FIG. 2, Panel B. Equal loading of lanes was verified as in FIG. 1. […] After 60 minutes of incubation, the effect was less apparent (FIG. 2A). The kinetics paralleled those of the increase in amount of activated MAP kinase (FIG. 2B).
# (§4) Cell extracts were prepared and p120 (◯) and p100 (●) were detected by immunoblotting following SDS-PAGE, FIG. 3, Panel A. The same filter was also probed with the antibody recognizing the activated forms of p42 and p44 MAP kinase (arrowheads), FIG. 3, Panel B. Equal loading lanes was verified as in FIG. 1. […] The sensitivity of the increase in amount of activated MAP kinase paralleled that of the increase in p120/p100 mobility (FIG. 3B).
# To determine which receptor(s) were responsible for the p120/p100 shift, the effects of placenta derived growth factor (P/GF), a VEGFR-1-specific ligand, were examined.
# p42 and p44 MAP kinase = assay: immunoblot for activated forms of p42 and p44 MAP kinase in HUVEC; format: cell-based, Human; conditions: for amount of activated (phosphorylated) p42/p44 MAP kinase: 10 μM histamine, 200 nM phorbol 12,13 dibutyrate
# Method: as §1, §2
# To reveal other changes in VEGF-stimulated signalling processes, the filters were also probed with an antibody recognizing the activated forms of p42 and p44 MAP kinase.
# as §3, §4
# To determine which receptor(s) were responsible for the p120/p100 shift, the effects of placenta derived growth factor (P/GF), a VEGFR-1-specific ligand, were examined. Confluent monolayers of HUVECs were incubated for 5 minutes in the absence (lane labelled C) or presence of P/GF at 100 (P/GF100) or 1000 ng/ml (P/GF1000). […] In another experiment, the cells were preincubated for 30 minutes in the absence (−) or presence (+) of 5 μM of the VEGFR-2 inhibitor SU5416. […] In all cases, cell extracts were prepared and p120 (◯) and […] (●) were detected by immunoblotting following SDS-PAGE, FIGS. 4A and 4C. […]
# β-catenin, p120 and p100 = assay: PY20 anti-phosphotyrosine immunoprecipitation and immunoblotting; format: cell-based, Human; conditions: HUVEC; for β-catenin and p120/p100 in phosphotyrosine (PY20) immunoprecipitates: 2.6 nM VEGF or 10 μM histamine 5 minutes, 100 μM pervanadate 15 minutes
# Method: For p120/p100-specific and phosphotyrosine (PY20) protein immunoprecipitations, the cells were lysed in boiling SDSSB (1% SDS, 25 mM Hepes, 2 mM EDTA, 0.1 M NaCl, 25 mM NaF, 1 mM vanadate, pH 7.6). The lysate was then collected, heated at 100° C. for 5 minutes, cooled and diluted with four volumes of ice-cold TX buffer that contained 2.9% instead of 1% Triton X-100. Immunoprecipitation was performed as described for TX buffer extractions.
# Some cells were treated for 15 minutes with 100 μM of the broad-spectrum tyrosine phosphatase inhibitor, pervanadate. Lysates of the cells were prepared by immediate extraction into a boiling solution of an SDS-based buffer containing kinase and phosphatase inhibitors, as described above.
# These extracts were then immunoprecipitated with antiphosphotyrosine antibody PY20 and analyzed by immunoblotting with PY20 (FIG. 7D).
# HUVEC = conditions: 2.6 nM VEGF, 5 minutes
# Method: Confluent monolayers of cells were fixed at room temperature for 15 minutes in 3% paraformaldehyde made up in PBS. Fixed cells were rinsed and then permeabilized by incubation with 0.5% Triton X-100 in PBS for 30 minutes. All antibodies were diluted in PBS containing 10% FCS, 0.1 M lysine, 0.3% Triton-X-100 and 0.02% azide. Incubation with antibody recognizing junction-associated protein was at 4° C. overnight followed by incubation with mouse or rabbit anti-phosphotyrosine antibody for 2 hours at room temperature. Secondary antibodies recognizing mouse and rabbit IgG conjugated to Cy3 or fluorescein, respectively, were applied together for 1 hour at room temperature. After rinsing, the samples were mounted under Citifluor and viewed with epifluorescence on a Nikon Eclipse E800 microscope. Photographs were taken using Kodak T-MAX film (400 ASA).
# After 5 minutes, the cells were fixed and then stained. […] All images were from similarly timed exposures. Bar, 20 μm.
# p120 and p100 [2] = conditions: HUVEC, 5 minutes; 2.6 nM VEGF, 10 μM histamine, 200 nM PDB
# Method: [^32P]Phosphate labelling was performed using Puck's Saline A (P-2917; Sigma, supplemented with 10 mM Hepes (Gibco), 2 mM glutamine (Gibco), 1 mM CaCl2, 1 mM MgSO4 and 0.2% (v/v) foetal calf serum. Cultures were rinsed twice with medium and then incubated with the same medium containing 100 μCi/ml of [^32P]phosphate. Labelling was for 2 hours at 37° C. in humidified air with ambient CO2.
# For phosphorylation analysis, cultures of HUVECs were labelled with [^32P]orthophosphate. After appropriate treatment, the cultures were lysed in boiling SDSSB and immunoprecipitated with the anti-p120/p100 antibody as described. For quantitation of [^32P]phosphate:protein, each immunoprecipitation was from protein extracted from ˜10 cm^2 of confluent culture. For the phosphoaminoacid analysis and Cleveland maps, protein from ˜60 cm^2 of confluent cells was used per immunoprecipitation. After separation by SDS-PAGE, for quantitation of [^32P]phosphate and p120/p100, protein was transferred to nitrocellulose and [^32P]phosphate incorporated into p120/p100 was detected by autoradiography. […] The area of filter containing p120 or p100 was detected by autoradiography, excised, and protein was acid hydrolysed to release phosphoaminoacids. These were then separated in two dimensions by high voltage electrophoresis at pH 1.9 and pH 3.5 and detected by autoradiography (Boyle et al., 1991). […]
# p120 and p100 [3] = conditions: HUVEC, 2.6 nM VEGF, 5 minutes
# cadherin/catenin complex = conditions: HUVEC, 2.6 nM VEGF, 5 minutes
# Method: For analysis of the cadherin and its association with catenins, extraction and immunoprecipitations were performed at 4° C. Cultures were briefly rinsed with ice-cold PBS and then lysed in TX buffer (1% (v/v) Triton X-100, 25 mM Hepes, 2 mM EDTA, 0.1 M NaCl, 25 mM NaF, 1 mM vanadate, pH 7.6 (adjusted with NaOH), 1 mM PMSF, 10 μg/ml soybean trypsin inhibitor, 0.1 U/ml α2-macroglobulin, 10 μg/ml leupeptin). The cells were extracted into lysis buffer for 10-15 minutes and then collected after scraping the dish. The lysates were centrifuged at 14,000×g for 20 minutes. The supernatant was precleared with protein A-Sepharose (Pharmacia) for 1 hour and then incubated with primary antibody for 1 hour followed by a further 1 hour with protein A-Sepharose together with rabbit anti-mouse antibodies. After five washes in lysis buffer, immune complexes were dissociated by addition of Laemmli sample buffer followed by heating at 100° C. for 5 minutes. Protein analysis was by SDS-PAGE and immunoblotting as described above.
# [4] = HUVEC preincubated 30 minutes with 5 μM, then 2.6 nM VEGF 5 minutes
# [5] = HUVEC preincubated 30 minutes with 5 μM, then 10 μM histamine 5 minutes
# [6] = HUVEC, 100 μM pervanadate, 15 minutes
# [7] = HUVEC, 5 minutes, P/GF at 100 or 1000 ng/ml
molecule,measurement,setting,value
"NCCc1c[nH]cn1 [Histamine, reference compound]",p120/p100 electrophoretic mobility (band shift),"p120 and p100 [1]; HUVEC, 5 minutes, 2.6 nM VEGF",effective; also recorded: increased electrophoretic mobility; also recorded: produced effects
same,amount of activated (phosphorylated) p42/p44 MAP kinase,"p42 and p44 MAP kinase; HUVEC, 5 minutes, 2.6 nM VEGF",increased the amounts of phospho-MAP kinases
same,amount of activated (phosphorylated) p42/p44 MAP kinase,"p42 and p44 MAP kinase; HUVEC, 5 minutes, 2.6 nM VEGF, listed as histamine",effective; also recorded: produced effects
same,β-catenin and p120/p100 in phosphotyrosine (PY20) immunoprecipitates,"β-catenin, p120 and p100",did not reveal any hint
"CCCC(=O)O[C@@H]1[C@@H](C)[C@@]2(O)[C@@H](C=C(CO)C[C@]3(O)C(=O)C(C)=C[C@@H]23)[C@@H]2C(C)(C)[C@]12OC(=O)CCC [PDB, Phorbol-12,13-dibutyrate, reference compound]",p120/p100 electrophoretic mobility (band shift),"p120 and p100 [1]; HUVEC, 5 minutes, 2.6 nM VEGF",increased electrophoretic mobility
same,amount of activated (phosphorylated) p42/p44 MAP kinase,"p42 and p44 MAP kinase; HUVEC, 5 minutes, 2.6 nM VEGF",without effect
"Cc1cc(C)c(/C=C2\C(=O)Nc3ccccc32)[nH]1 [SU5416, reference compound]",effect on VEGF-stimulated increase in p120/p100 mobility,p120 and p100 [1]; [4],blocked
same,effect on histamine-stimulated mobility shift in p120/p100,p120 and p100 [1]; [5],did not block
same,effect on VEGF-stimulated activation of MAP kinase,p42 and p44 MAP kinase; [4],blocked
same,effect on histamine-stimulated activation of MAP kinase,p42 and p44 MAP kinase; [5],did not block
VEGF,time at which increase in mobility of p120 and p100 was observed,"p120 and p100 [1]; HUVEC, 2.6 nM (100 ng/ml) VEGF",≤ 2 min
same,time for which increase in mobility of p120 and p100 was sustained,"p120 and p100 [1]; HUVEC, 2.6 nM (100 ng/ml) VEGF",up to 30 minutes
same,effect on p120/p100 mobility after 60 minutes of incubation,"p120 and p100 [1]; HUVEC, 2.6 nM VEGF, 60 minutes",less apparent
same,lowest concentration with observed effect on p120/p100 mobility,"p120 and p100 [1]; HUVEC, 5 minutes",0.1 nM
same,p120/p100 electrophoretic mobility (band shift),"p120 and p100 [1]; HUVEC, 5 minutes, 2.6 nM VEGF","migrate as faster, tighter bands; also recorded: effective; also recorded: increased electrophoretic mobility; also recorded: produced effects"
same,kinetics of increase in activated MAP kinase relative to p120/p100 mobility,"p42 and p44 MAP kinase; HUVEC, 2.6 nM VEGF, time course",paralleled
same,sensitivity of increase in activated MAP kinase relative to p120/p100 mobility,"p42 and p44 MAP kinase; HUVEC, 5 minutes, indicated concentrations of VEGF",paralleled
same,amount of activated (phosphorylated) p42/p44 MAP kinase,"p42 and p44 MAP kinase; HUVEC, 5 minutes, 2.6 nM VEGF",clearly stimulated an increase; also recorded: effective; also recorded: produced effects
same,focal contact protein tyrosine phosphorylation (PY20 immunoprecipitation),"β-catenin, p120 and p100; 2.6 nM VEGF, 5 minutes",increased
same,β-catenin and p120/p100 in phosphotyrosine (PY20) immunoprecipitates,"β-catenin, p120 and p100",did not reveal any hint
same,colocalization of altered phosphotyrosine staining with β-catenin staining,HUVEC,did not colocalize
same,phosphotyrosine striations within the cells,HUVEC,increased
same,vinculin staining,HUVEC,appearance of vinculin-positive striations
same,phosphate incorporation into 30 kDa and 17 kDa V8 cleavage products of p120 and p100,p120 and p100 [2],substantially decreased
same,phosphotyrosine in p120 and p100,p120 and p100 [3],not detected
same,amount of phosphoserine and phosphothreonine in p120 and p100,"p120 and p100 [3]; 10 μM histamine, 200 nM PDB",decreased
same,"association of catenins with cadherins (VE-cadherin, N-cadherin, α, β and γ catenin, p120, p100)",cadherin/catenin complex,no effect on association of any members of the complex
pervanadate [reference compound],mobility of p120/p100,p120 and p100 [1]; [6],did not affect the mobility
same,activation of MAP kinase,p42 and p44 MAP kinase; [6],did lead to activation of MAP kinase
same,β-catenin and p120/p100 in phosphotyrosine (PY20) immunoprecipitates,"β-catenin, p120 and p100",detected
B1,mobility shift in p120/p100,p120 and p100 [1]; [7],failed to stimulate a mobility shift
same,activation of MAP kinase,p42 and p44 MAP kinase; [7],did not lead to activation of MAP kinase
